Consider 62 compounds from patent publication US20140243292A1, “SUBSITUTED 2-(CHROMAN-6-YLOXYL)-THIAZOLES AND THEIR USE AS PHARMACEUTICALS” (Sanofi, priority 2011, published 2014).

The target in this test is T1, human NCX1 (Homo sapiens, UniProt P32418).
T1 construct: expressed in transfected cells
Kind of test: NCX1 inhibition, reverse mode (Ca2+ influx into cells), FLIPR Fluo-4 assay. The class given is cell-based. The conditions noted are these: for pIC50: inhibition of NCX1 in reverse mode (Ca2+ influx into cells), read-out: NCX1rv IC50. In outline:
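Max−min Fluo-4 fluorescence (520 nm, FLIPR, 240 points at 2 s) after 20 µM final gramicidin, which drives Na+ loading and reverse-mode Ca2+ entry, gave % inhibition and IC50. Test compound was preincubated 45 min at 16 °C with Fluo-4-loaded CHO cells stably expressing human NCX1, in pH 7.4 buffer containing 3.5 mM CaCl2 and probenecid.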

pIC50: −log10 of the molar value. Counter-ions that a name gives are not always drawn.

In the case of `O=C(NCc1ccnc(N2CCOCC2)c1)c1cnc(Oc2ccc3c(c2)CCC(c2ccccc2)O3)s1` (centres unmarked) [compound 28], the negative logarithm of the IC50 (pIC50) was 6.70.
Regarding `CC(C)NC(=O)c1cnc(Oc2ccc3c(c2)CCC(c2ccccc2)O3)s1` (centres unmarked) [compound 320], the pIC50 was 6.52.
Still for that read-out and setting: as for `CCCNC(=O)c1csc(Oc2ccc3c(c2)CC[C@@H](c2ccccc2)O3)n1` [compound 351], the figure is 6.96.
On the same count and under the same terms, under `Cc1noc(C)c1CNCc1cnc(Oc2ccc3c(c2)CCC(c2ccccc2)O3)s1` (centres unmarked) [compound 152] stands 6.52; under `CC1Cc2cc(Oc3ncc(C(=O)NCc4ccno4)s3)ccc2OC1c1ccccc1` (centres unmarked) [compound 363], 5.72.
Still for that read-out and setting: as for `COc1cccc(C2CCc3cc(Oc4ncc(C(=O)NCc5ccno5)s4)ccc3O2)c1F` (centres unmarked) [compound 361], the figure is 5.02.
For `c1ccc(C2CCc3cc(Oc4ncc(CNCc5ccnc(N6CCOCC6)c5)s4)ccc3O2)cc1` (centres unmarked) [compound 162], the pIC50 was 6.40.
On the same count and under the same terms, under `COC(=O)C1(NC(=O)c2cnc(Oc3ccc4c(c3)CC[C@@H](c3ccccc3)O4)s2)CCCC1` [compound 187] stands 6.22; under `c1ccc(C2CCc3cc(Oc4ncc(CNCc5ccncn5)s4)ccc3O2)cc1` (centres unmarked) [compound 161], 6.52; under `O=C(NCCc1ccncc1)c1cnc(Oc2ccc3c(c2)CCC(c2ccccc2)O3)s1` (centres unmarked) [compound 61, hydrochloride], 6.70.
On the same count and under the same terms, as for `O=C(c1cnc(Oc2ccc3c(c2)CC[C@@H](c2ccccc2)O3)s1)N1CCC2(CCCNC2)C1` (some centres unmarked) [compound 290], the figure is 6.22.
The same measure, in the same setting: as for `Cc1n[nH]c(C)c1C(C)NC(=O)c1cnc(Oc2ccc3c(c2)CCC(c2ccccc2)O3)s1` (centres unmarked) [compound 31], the figure is 6.00.
Regarding `Cc1noc(C)c1CCC(=O)NCc1cnc(Oc2ccc3c(c2)CC[C@@H](c2ccccc2)O3)s1` [compound 296], the pIC50 is 6.40.
Same read-out and setting: as for `O=C(NCc1cnc(Oc2ccc3c(c2)CCC(c2ccccc2)O3)s1)c1ccncc1Cl` (centres unmarked) [compound 80], the figure is 6.70; as for “2-[2-(2,6-Dimethyl-phenyl)-chroman-6-yloxy]-thiazole-5-carboxylic acid [2-(2-oxo-imidazolidin-1-yl)-ethyl]-amide [compound 347]”, 5.82.
On the same count and under the same terms, as for `CO[C@H]1CNC[C@@H]1NC(=O)c1cnc(Oc2ccc3c(c2)CC[C@@H](c2ccccc2)O3)s1` [compound 254], the figure is 6.40.
Consider `c1ccc(C2CCc3cc(Oc4ncc(CN5C6CCC5CC6)s4)ccc3O2)cc1` (centres unmarked) [compound 121], for which the pIC50 was 6.22.
As to `Cc1nn(C)c(C)c1CCC(=O)NCc1cnc(Oc2ccc3c(c2)CC[C@@H](c2ccccc2)O3)s1` [compound 297], the pIC50 was 5.96.
Same read-out and setting: as for `O=C(NCc1ccncc1)c1cnc(Oc2ccc3c(c2)CCC(c2cccc(O)c2)O3)s1` (centres unmarked) [compound 174, hydrochloride], the figure is 6.10; as for `O=C(O)C[C@H](O)[C@H](CC1CCCCC1)NC(=O)c1cnc(Oc2ccc3c(c2)CC[C@@H](c2ccccc2)O3)s1` [compound 240], 5.96.
On the same count and under the same terms, under `C[C@@H]1CN(Cc2cnc(Oc3ccc4c(c3)CCC(c3ccccc3)O4)s2)C[C@H](C)O1` (some centres unmarked) [compound 100] stands 6.00; under `O=C(NCc1ccnc(Cl)c1)c1cnc(Oc2ccc3c(c2)CCC(c2cnccn2)O3)s1` (centres unmarked) [compound 310], 5.59; under `c1ccc(C2CCc3cc(Oc4ncc(CNCc5ccno5)s4)ccc3O2)cc1` (centres unmarked) [compound 159], 7.00.
Same read-out and setting: as for `Cc1cc(C(=O)NCc2cnc(Oc3ccc4c(c3)CCC(c3ccccc3)O4)s2)on1` (centres unmarked) [compound 84], the figure is 6.52.
`O=C(NCc1cnc(Oc2ccc3c(c2)CCC(c2ccccc2)O3)s1)c1ccnc(N2CCOCC2)c1` (centres unmarked) [compound 83]: the pIC50 is 5.68.
Take `COc1c(F)cccc1C1CCc2cc(Oc3ncc(C(=O)NCc4ccno4)s3)ccc2O1` (centres unmarked) [compound 366]: the pIC50 was 6.74.
For the compound `Cc1cc(CNCc2cnc(Oc3ccc4c(c3)CCC(c3ccccc3)O4)s2)n(C)n1` (centres unmarked) [compound 141], the pIC50 was 6.40.
On the same count and under the same terms, under `CC1(C)CN(C(=O)c2cnc(Oc3ccc4c(c3)CC[C@@H](c3ccccc3)O4)s2)CCN1` [compound 282] stands 5.92; under `O=C(NC(CCO)C1CC1)c1cnc(Oc2ccc3c(c2)CCC(c2cccnc2)O3)s1` (centres unmarked) [compound 252], 5.49.
Still for that read-out and setting: as for `Cc1nn(C)cc1CNCc1cnc(Oc2ccc3c(c2)CCC(c2ccccc2)O3)s1` (centres unmarked) [compound 137], the figure is 6.40; as for `N#Cc1ccc(CNCc2cnc(Oc3ccc4c(c3)CCC(c3ccccc3)O4)s2)cn1` (centres unmarked) [compound 157], 6.70.
Same read-out and setting: under `NC(=O)c1cnc(Oc2ccc3c(c2)CCC(c2ccccc2)O3)s1` (centres unmarked) [compound 339] stands 6.40; under `CCCCN(C)Cc1cnc(Oc2ccc3c(c2)CCC(c2ccccc2)O3)s1` (centres unmarked) [compound 99], 6.15.
In the case of `N[C@@H](Cc1ccccc1)C(=O)NCc1cnc(Oc2ccc3c(c2)CC[C@@H](c2ccccc2)O3)s1` [compound 304], the pIC50 is 5.72.
Same read-out and setting: as for `COC(=O)C1(C)CCN(C(=O)c2cnc(Oc3ccc4c(c3)CC[C@@H](c3ccccc3)O4)s2)C1` (some centres unmarked) [compound 225], the figure is 6.30; as for `CCn1ccc(C(=O)NCc2cnc(Oc3ccc4c(c3)CCC(c3ccccc3)O4)s2)n1` (centres unmarked) [compound 93], 6.30.
As for `Cc1cc(CNCc2cnc(Oc3ccc4c(c3)CCC(c3ccccc3)O4)s2)nn1C` (centres unmarked) [compound 147], the pIC50 was 6.52.
Take `Cc1nc(Oc2ccc3c(c2)CCC(c2ccccc2)O3)sc1C(=O)NCc1ccnc(Cl)c1` (centres unmarked) [compound 167, hydrochloride]: the pIC50 was 6.30.
As to `Cc1c(S(=O)(=O)NCc2cnc(Oc3ccc4c(c3)CCC(c3ccccc3)O4)s2)cnn1C(C)C` (centres unmarked) [compound 130], the pIC50 was 6.15.
Still for that read-out and setting: as for `CC(C)C[C@H](NC(=O)c1cnc(Oc2ccc3c(c2)CC[C@@H](c2ccccc2)O3)s1)[C@@H](O)C(=O)O` [compound 236], the figure is 5.80; as for `Cc1c(S(=O)(=O)NCc2cnc(Oc3ccc4c(c3)CCC(c3ccccc3)O4)s2)cnn1C` (centres unmarked) [compound 133], 6.40.
As for `CS(=O)(=O)c1ccc(C2CCc3cc(Oc4ncc(C(=O)NCc5ccno5)s4)ccc3O2)cc1` (centres unmarked) [compound 301], the pIC50 was 5.16.
Still for that read-out and setting: under `OCCNCc1cnc(Oc2ccc3c(c2)CCC(c2ccccc2)O3)s1` (centres unmarked) [compound 311] stands 7.00; under `O=C(NCc1ccnc(Cl)c1)c1cnc(Oc2ccc3c(c2)CCC(c2ccsc2)O3)s1` (centres unmarked) [compound 211, hydrochloride], 6.40; under `CCOC(=O)C1(NC(=O)c2cnc(Oc3ccc4c(c3)CC[C@@H](c3ccccc3)O4)s2)CC1` [compound 188], 6.22.
Take `CC[C@H](NC(=O)c1cnc(Oc2ccc3c(c2)CCC(c2ccccc2)O3)s1)c1ccc(OC)nc1` (some centres unmarked) [compound 22]: the pIC50 is 6.40.
As for `Cc1cc(C(=O)NCc2cnc(Oc3ccc4c(c3)CCC(c3ccccc3)O4)s2)n(C)n1` (centres unmarked) [compound 66], the pIC50 is 6.22.
Still for that read-out and setting: as for `O=C(NCc1cnc(Oc2ccc3c(c2)CCC(c2ccccc2)O3)s1)c1cccnc1` (centres unmarked) [compound 15, hydrochloride], the figure is 7.00.
On the same count and under the same terms, as for `Cc1nc(Oc2ccc3c(c2)CC[C@@H](c2ccccc2)O3)sc1C(=O)NCc1ccncc1` [compound 98, hydrochloride], the figure is 6.52; as for `Cc1ccccc1C1CCc2cc(Oc3ncc(C(=O)NCc4ccnc(Cl)c4)s3)ccc2O1` (centres unmarked) [compound 215], 6.00; as for `O=C(O)CNC(=O)c1cnc(Oc2ccc3c(c2)CC[C@@H](c2ccccc2)O3)s1` [compound 192], 6.30.
Still for that read-out and setting: as for `CC1(C)C[C@@H](C(=O)O)N(C(=O)c2cnc(Oc3ccc4c(c3)CC[C@@H](c3ccccc3)O4)s2)C1` [compound 234], the figure is 6.00.
On to `CN1CCN(C(=O)c2cnc(Oc3ccc4c(c3)CC[C@@H](c3ccccc3)O4)s2)CC1` [compound 213, hydrochloride], for which the pIC50 is 6.10.
For the compound `COC(=O)[C@@H]1[C@@H]2C[C@@H]2CN1C(=O)c1cnc(Oc2ccc3c(c2)CC[C@@H](c2ccccc2)O3)s1` [compound 222], the pIC50 was 6.05.
Regarding `Cc1ccc(C(=O)NCc2cnc(Oc3ccc4c(c3)CCC(c3ccccc3)O4)s2)cn1` (centres unmarked) [compound 64], the pIC50 is 5.89.
Still for that read-out and setting: under `C[C@H](O)[C@H](CO)NC(=O)c1cnc(Oc2ccc3c(c2)CC[C@@H](c2ccccc2)O3)s1` [compound 202] stands 6.70; under `O=C(NCc1ccno1)c1cnc(Oc2ccc3c(c2)CCC(c2cncc(F)c2)O3)s1` (centres unmarked) [compound 248], 6.10; under `C[C@H](NC(=O)c1cnc(Oc2ccc3c(c2)CCC(c2ccccc2)O3)s1)c1nc(C2CC2)cs1` (some centres unmarked) [compound 52], 6.40.
The same measure, in the same setting: as for `O=C(c1cnc(Oc2ccc3c(c2)CC[C@@H](c2ccccc2)O3)s1)N1CCCCC1` [compound 288], the figure is 6.40; as for `CN1CCN(Cc2cnc(Oc3ccc4c(c3)CCC(c3ccccc3)O4)s2)CC1=O` (centres unmarked) [compound 102], 6.40.
For the compound `CC(C)C[C@@H](NC(=O)c1cnc(Oc2ccc3c(c2)CC[C@@H](c2ccccc2)O3)s1)C(=O)OC(C)(C)C` [compound 228], the inhibition at 30 µM (NCX1 reverse mode, at 30 μM, read-out: Inhibition in % at 30 μM (NCX1rv; IC50 value not determined)) was 46%.
Take `C[C@H](NC(=O)c1cnc(Oc2ccc3c(c2)CC[C@@H](c2ccccc2)O3)s1)C(=O)O` [compound 191]: the negative logarithm of the IC50 (pIC50) was 6.22.

The term pIC50 denotes the negative decadic logarithm of the IC50, by convention in mol/L. As a reminder, the inhibition is the drop in the measured response relative to a control, in per cent.
